What was measured:
[1] = test system: SOCE in U937 human monocytes; experiment: SOCE Fura-2 bioassay in U937 cells; settings: Homo sapiens, U-937, read-out: IC50 SOCE, purified cannabinoids, U937; Table 5
Protocol: (§1) Briefly, SOCE inhibition experiments were performed as described in Example 8, using each of the hemp extracts listed below and in Tables 6A and 6B at six concentrations each in each of the five cell types listed above to obtain dose response curves, as shown in FIGS. 11A-11SS. […] All data are averages of three independent runs±SEM. […] Hemp extracts used in FIGS. 11A-11SS are: Sour Space Candy (SSC), Hawaiian Haze (HH), Special Sauce (SS), Suver Haze (SH), White CBG (WCBG), Elektra (ELEK), Cherry Wine (CW), Lifter (LIF), Grape Soda (GS).

[2] = test system: SOCE in RBL-2H3 rat mast cells; experiment: SOCE Fura-2 bioassay in RBL-2H3 cells; settings: Rattus norvegicus, RBL-2H3, read-out: IC50 SOCE, purified cannabinoids, RBL-2H3; Table 5
Protocol: as §1

[3] = test system: SOCE in THP-1 human monocytes; experiment: SOCE Fura-2 bioassay in THP-1 cells; settings: for IC50: Homo sapiens, THP-1, read-out: IC50 SOCE, purified cannabinoids; for combinatory effect when paired with 2.2 μM CBGA / combinatory effect on SOCE inhibition when paired with CBGA (isobolographic analysis): THP-1; for combinatory effect when paired with 2.2 μM CBGA: 10 μM cannabinoid + 2.2 μM CBGA, FIG. 10Z; for combinatory effect on SOCE inhibition when paired with CBGA (isobolographic analysis): pairs expected to inhibit 50%, FIGS. 10U-10Y
SOCE in Jurkat T cells = experiment: SOCE Fura-2 bioassay in Jurkat cells; format: cell-based, human; settings: for IC50: Homo sapiens, read-out: IC50 SOCE, purified cannabinoids, Jurkat, Table 5; for combinatory effect on SOCE inhibition when paired with CBGA (isobolographic analysis): pairs expected to inhibit 50%, FIGS. 10A-10T; for effect on SOCE Ca^2+ signals, pure compounds: 10 μM, 1 μM thapsigargin, FIG. 7A, 7C
[4] = test system: SOCE in HEK-293 human embryonic kidney cells; experiment: SOCE Fura-2 bioassay in HEK293 cells; format: cell-based; settings: for IC50: Homo sapiens, HEK293, read-out: IC50 SOCE, purified cannabinoids, HEK-293, Table 5; for inhibitory effect in immune cells compared with non-immune HEK293 cells: 10 μM, HEK293 (FIG. 8) vs immune cells
[5] = test system: SOCE in Luva human mast cells; experiment: SOCE Fura-2 bioassay in Luva cells; settings: Homo sapiens, Mast cell, read-out: IC50 SOCE, purified cannabinoids, Luva; Table 5
Protocol: as §1

Compound	IC50 [1]	IC50 [2]	IC50 [3]	combinatory effect when paired with 2.2 μM CBGA [3]	IC50 (SOCE in Jurkat T cells)	combinatory effect on SOCE inhibition when paired with CBGA (isobolographic analysis) (SOCE in Jurkat T cells)	IC50 [4]	IC50 [5]	combinatory effect on SOCE inhibition when paired with CBGA (isobolographic analysis) [3]	effect on SOCE Ca^2+ signals, pure compounds (SOCE in Jurkat T cells)	inhibitory effect in immune cells compared with non-immune HEK293 cells [4]
CCCCCc1cc(O)c2c(c1)OC(C)(C)c1ccc(C)cc1-2 [CBN, 6,6,9-trimethyl-3-pentyl-6H-benzo[c]chromen-1-ol]	45.3 µM	42.6 µM	> 50 µM	simple additive agonists	9.09 µM	Simple additive	26.9 µM	33.4 µM			
CCCCCc1cc(O)c2c(c1)OC(C)(C)[C@@H]1CC=C(C)C[C@@H]21 [Δ8-THC, (6aR,10aR)-6,6,9-trimethyl-3-pentyl-6a,7,10,10a-tetrahydro-6H-benzo[c]chromen-1-ol]	> 50 µM	> 50 µM	> 50 µM	sub-additive	14.2 µM	sub-additive	> 50 µM	39.7 µM			
CCCc1cc(O)c2c(c1)OC(C)(C)[C@@H]1CCC(C)=C[C@@H]21 [THCV, trimethyl-3-propyl-6a,7,8,10a-tetrahydro-6H-benzo[c]chromen-1-ol]	> 50 µM	> 50 µM	> 50 µM		10.7 µM		> 50 µM	> 50 µM			
CCCCCc1cc(O)c(C/C=C(\C)CCC=C(C)C)c(O)c1 [CBG, (E)-2-(3,7-dimethylocta-2,6-dien-1-yl)-5-penlylbenzene-1,3-diol]	33.5 µM	> 50 µM	33.6 µM	simple additive agonists	2.36 µM	supra-additive	> 50 µM	3.29 µM			
CCCc1cc(O)c(C/C=C(\C)CCC=C(C)C)c(O)c1 [CBGV, (E)-2-(3,7-dimethylocta-2,6-dien-1-yl)-5-propylbenzene-1,3-diol]	14.5 µM	30.9 µM	40.7 µM	simple additive agonists	5.27 µM	supra-additive	9.16 µM	6.46 µM			
C=C(C)c1ccc(C)cc1-c1c(O)cc(CCCCC)cc1O [CBND, 5′-methyl-4-pentyl-2′-(prop-1-en-2-yl)-[1,1′ biphenyl]-2,6-diol]	24 µM	32.8 µM	> 50 µM		6.7 µM	Simple additive	21.4 µM	19 µM			
C=C(C)[C@@H]1CCC(C)=C[C@H]1c1c(O)cc(CCCCC)c(C(=O)O)c1O [CBDA, (1′R,2′R)-2,6-dihydroxy-5′-methyl-4-penlyl-2′-(prop-1-en-2-yl)-1′,2′,3′,4′-tetrahydro-[1,1′-biphenyl]-3-carboxylic acid]	5.83 µM	16.1 µM	5.17 µM		4.07 µM	sub-additive	26.9 µM	2.4 µM	sub-additive	fully block the Ca^2+ signals	selective
CCCCCc1cc(O)c2c(c1)OC(C)(C)[C@@H]1CCC(C(=O)O)=C[C@@H]21 [11-COOH-Δ9-THC, (6aR,10aR)-1-hydroxy-6,6-dimethyl-3-pentyl-6a,7,8,10a-tetrahydro-6H-benzo[c]chromene-9-carboxylic acid]											selective
CCCCCc1cc2c(c(O)c1C(=O)O)[C@@H]1[C@H]3C(CC[C@@]3(C)O2)C1(C)C (stereo partly drawn) [CBLA, (1aS,1a1R,3aR,8bR)-8-hydroxy-1,1,3a-trimethyl-6-pentyl-1a, 1a1,2,3,3a, 8b-hexahydro-1H-4-oxabenzo[f]cyclobuta[cd]indene-7-carboxylic acid]	28.3 µM	> 50 µM	12.4 µM		9.29 µM	sub-additive	31.1 µM	20.9 µM			
CCCCCc1cc2c(c(O)c1C(=O)O)[C@@H]1C=C(C)CC[C@H]1C(C)(C)O2 [THCA, (6aR, 10aR)-1-hydroxy-6,6,9-trimethyl-3-pentyl-6a,7,8,10a-tetrahydro-6H-benzo[c]chromene-2-carboxylic acid]	8.1 µM	17.5 µM	10.4 µM		2.23 µM	Simple additive	20.7 µM	0.57 µM	sub-additive	fully block the Ca^2+ signals	

From patent US20230091336A1, “CANNABINOID COMPOSITIONS” (priority 2020, published 2023)
